Assay results reported in patent EP0360258B1, “Amino acid quinoline and naphthyridine derivatives” (ABBOTT LABORATORIES, priority 1988, dated 1990).
≈ marks a conversion by molar mass, not a printed value. Structures can show the parent of a compound that is named as a salt. Where two headings read alike, the source gives them in different places.

Legend:
Ps.Aeruginosa A5007 = test: Second in vitro antibacterial test, MIC (BHIB); assay type: cell-based; conditions: Brain Heart Infusion Broth (BHIB)
E.Coli Juhl = test: Second in vitro antibacterial test, MIC (BHIB); assay type: cell-based; conditions: Brain Heart Infusion Broth (BHIB)
Strep. pyogenes EES 61 = test: Second in vitro antibacterial test, MIC (BHIB); assay type: cell-based
Stap. Aureus CMX 553 = test: Second in vitro antibacterial test, MIC (BHIB); assay type: cell-based; conditions: Brain Heart Infusion Broth (BHIB)
[1] = Brain Heart Infusion Broth (BHIB)
[2] = Pseudomonas aeruginosa, read-out: MIC
[3] = Escherichia coli, read-out: MIC
[4] = Streptococcus pyogenes, EES61, Brain Heart Infusion Broth (BHIB), read-out: MIC
[5] = Staphylococcus aureus, read-out: MIC

Row | MIC (Ps.Aeruginosa A5007) | MIC (E.Coli Juhl) | MIC (Strep. pyogenes EES 61; [1]) | MIC (Stap. Aureus CMX 553) | solubility (physchem; pH 7.4) | solubility (physchem; water) | MIC (Ps.Aeruginosa A5007; [2]) | MIC (E.Coli Juhl; [3]) | MIC (Strep. pyogenes EES 61; [4]) | MIC (Stap. Aureus CMX 553; [5]) | SMILES
1 | – | – | – | – | 2400 µg/mL | 4100 µg/mL | – | – | – | – | N[C@@H](CC(=O)O)C(=O)NC1CCN(c2nc3c(cc2F)c(=O)c(C(=O)O)cn3-c2ccc(F)cc2F)C1 (stereo partly drawn) [Example 45, 7-(3-L-Asp-amino-1-pyrrolidinyl)-1-(2,4-difluorophenyl)-6-fluoro-1,4-dihydro-4-oxo-1,8-naphthyridine-3-carboxylic acid hydrochloride]
2 | – | – | – | – | 1030 µg/mL (≈ 1790 µM) | 26000 µg/mL (≈ 45300 µM) | – | – | – | – | CCC[C@H](NC(=O)[C@H](C)N)C(=O)NC1CCN(c2nc3c(cc2F)c(=O)c(C(=O)O)cn3-c2ccc(F)cc2F)C1 (stereo partly drawn) [Example 55b, 7-(3-Ala-Nval-amino-1-pyrrolidinyl)-6-fluoro-1-(2,4-difluorophenyl)-1,4-dihydro-4-oxo-1,8-naphthyridine-3-carboxylic acid]
3 | – | – | – | – | 2000 µg/mL (≈ 3400 µM) | 26000 µg/mL (≈ 44200 µM) | – | – | – | – | CC(C)C[C@H](NC(=O)[C@H](C)N)C(=O)NC1CCN(c2nc3c(cc2F)c(=O)c(C(=O)O)cn3-c2ccc(F)cc2F)C1 (stereo partly drawn) [Example 55r, 7-(3-Ala-Leu-amino-1-pyrrolidinyl)-6-fluoro-1-(2,4-difluorophenyl)-1,4-dihydro-4-oxo-1,8-naphthyridine-3-carboxylic acid]
4 | – | – | – | – | 190 µg/mL (≈ 301 µM) | 19000 µg/mL (≈ 30100 µM) | – | – | – | – | CC(C)C[C@H](NC(=O)[C@@H](N)CC(C)C)C(=O)NC1CCN(c2nc3c(cc2F)c(=O)c(C(=O)O)cn3-c2ccc(F)cc2F)C1 (stereo partly drawn) [Example 55q, 7-(3-Leu-Leu-amino-1-pyrrolidinyl)-6-fluoro-1-(2,4-difluorophenyl)-1,4-dihydro-4-oxo-1,8-naphthyridine-3-carboxylic acid]
5 | – | – | – | – | 80 µg/mL (≈ 143 µM) | 6890 µg/mL (≈ 12300 µM) | – | – | – | – | CCC[C@H](NC(=O)CN)C(=O)NC1CCN(c2nc3c(cc2F)c(=O)c(C(=O)O)cn3-c2ccc(F)cc2F)C1 (stereo partly drawn) [Example 52]

Further lines, the compound ahead of its results:

Row | SMILES | MIC (Ps.Aeruginosa A5007) | MIC (E.Coli Juhl) | MIC (Strep. pyogenes EES 61; [1]) | MIC (Stap. Aureus CMX 553) | solubility (physchem; pH 7.4) | solubility (physchem; water) | MIC (Ps.Aeruginosa A5007; [2]) | MIC (E.Coli Juhl; [3]) | MIC (Strep. pyogenes EES 61; [4]) | MIC (Stap. Aureus CMX 553; [5])
6 | CC(C)CC(N)C(=O)NC1CCN(c2nc3c(cc2F)c(=O)c(C(=O)O)cn3C2CC2)C1 (stereo not drawn) [Example 26o] | 1.56 µg/mL (≈ 3.5 µM) | 0.2 µg/mL (≈ 0.449 µM) | 3.1 µg/mL (≈ 6.96 µM) | 0.39 µg/mL (≈ 0.875 µM) | – | – | – | – | – | –
7 | NC1CCN(c2nc3c(cc2F)c(=O)c(C(=O)O)cn3-c2ccc(F)cc2)C1 (stereo not drawn) [A, 7-(3-amino-1-pyrrolidinyl)-6-fluoro-1-(4-fluorophenyl)-1,4-dihydro-4-oxo-1,8-naphthyridine-3-carboxylic acid, reference compound] | – | – | – | – | 14 µg/mL (≈ 36.2 µM) | 1400 µg/mL (≈ 3620 µM) | – | – | – | –
8 | N[C@@H](Cc1cnc[nH]1)C(=O)NC1CCN(c2nc3c(cc2F)c(=O)c(C(=O)O)cn3-c2ccc(F)cc2F)C1 (stereo partly drawn) [Example 44c, 7-[3-L-Histidine-Amino-1-Pyrrolidinyl)-1-(2,4-Difluorophenyl)-6-Fluoro-1,4-Dihydro-4-oxo-1,8-Naphthyridine-3-Carboxylic Acid Dihydrochloride] | – | – | – | – | 300 µg/mL | > 100000 µg/mL | > 64 µg/mL | 64 µg/mL | 32 µg/mL | 16 µg/mL
9 | O=C(O)c1cn(-c2ccc(F)cc2F)c2nc(N3CCC(NC(=O)C4CCCN4)C3)c(F)cc2c1=O (stereo not drawn) [Example 28] | – | – | – | – | – | – | 12.5 µg/mL (≈ 24.9 µM) | 1.56 µg/mL (≈ 3.11 µM) | 1.56 µg/mL (≈ 3.11 µM) | 1.56 µg/mL (≈ 3.11 µM)
10 | Cl.NCC(=O)N[C@@H](Cc1ccccc1)C(=O)NC1CCN(c2cc3c(cc2F)c(=O)c(C(=O)O)cn3-c2ccc(F)cc2F)C1 (stereo partly drawn) [Example 26jj, 1-(2,4-Difluorophenyl)-6-Fluoro-7-(3-Gly-L-Phe -Amino-1-Pyrrolidinyl)-1,4-Dihydro-4-Oxo-Quinoline-3-Carboxylic Acid Hydrochloride] | 64 µg/mL | 16 µg/mL | 32 µg/mL | 16 µg/mL | – | – | – | – | – | –
11 | CCC[C@H](N)C(=O)NC1CCN(c2nc3c(cc2F)c(=O)c(C(=O)O)cn3CC)C1 (stereo partly drawn) [Example 26ff] | 12.5 µg/mL (≈ 29.8 µM) | 1.56 µg/mL (≈ 3.72 µM) | 6.2 µg/mL (≈ 14.8 µM) | 1.56 µg/mL (≈ 3.72 µM) | – | – | – | – | – | –
12 | CC(N)C(=O)NC1CCN(c2nc3c(cc2F)c(=O)c(C(=O)O)cn3-c2ccc(F)cc2F)C1 (stereo not drawn) [Example 17] | – | – | – | – | 120 µg/mL (≈ 252 µM) | > 20000 µg/mL | 16 µg/mL (≈ 33.7 µM) | 0.5 µg/mL (≈ 1.05 µM) | – | 2 µg/mL (≈ 4.21 µM)
13 | CCCC(N)C(=O)NC1CCN(c2nc3c(cc2F)c(=O)c(C(=O)O)cn3C2CC2)C1 (stereo not drawn) [Example 26p] | 1.56 µg/mL (≈ 3.62 µM) | – | 3.1 µg/mL (≈ 7.18 µM) | 0.39 µg/mL (≈ 0.904 µM) | – | – | – | – | – | –
14 | CCC[C@H](NC(=O)[C@@H](N)CCC)C(=O)NC1CCN(c2nc3c(cc2F)c(=O)c(C(=O)O)cn3-c2ccc(F)cc2F)C1 (stereo partly drawn) [Example 3b, 7-(3-L-Norvaline-L-Norvalineamino-1-pyrrolidinyl)-1-(2,4-difluorophenyl)-6-fluoro-1,4-dihydro-4-oxo-1,8-naphthyridine-3-carboxylic acid hydrochloride] | – | – | – | – | 680 µg/mL | > 40000 µg/mL | 50 µg/mL | 25 µg/mL | 12.5 µg/mL | 12.5 µg/mL
15 | NC(Cc1ccc(O)cc1)C(=O)NC1CCN(c2nc3c(cc2F)c(=O)c(C(=O)O)cn3-c2ccc(F)cc2F)C1 (stereo not drawn) [Example 13] | – | – | – | – | 60 µg/mL (≈ 106 µM) | > 90000 µg/mL | 50 µg/mL (≈ 88.1 µM) | 12.5 µg/mL (≈ 22 µM) | 12.5 µg/mL (≈ 22 µM) | 12.5 µg/mL (≈ 22 µM)
